This assay addresses Exon 22 truncated CFTR (Homo sapiens, UniProt P13569). The experiment in a line: TECC-24 assay of transiently expressed CFTR variants in FRT cells. The settings on record: FRT cells expressing Exon 22 truncated cDNA; AUC of CFTR-mediated chloride current. The arrangement: contain the first 1239 amino acids of a WT CFTR; expressed in transfected cells; host or cells: Fischer Rat Thyroid (FRT) cells. It is filed as cell-based.

Sequence of Exon 22 truncated CFTR (P13569 with tags, fused parts or gaps): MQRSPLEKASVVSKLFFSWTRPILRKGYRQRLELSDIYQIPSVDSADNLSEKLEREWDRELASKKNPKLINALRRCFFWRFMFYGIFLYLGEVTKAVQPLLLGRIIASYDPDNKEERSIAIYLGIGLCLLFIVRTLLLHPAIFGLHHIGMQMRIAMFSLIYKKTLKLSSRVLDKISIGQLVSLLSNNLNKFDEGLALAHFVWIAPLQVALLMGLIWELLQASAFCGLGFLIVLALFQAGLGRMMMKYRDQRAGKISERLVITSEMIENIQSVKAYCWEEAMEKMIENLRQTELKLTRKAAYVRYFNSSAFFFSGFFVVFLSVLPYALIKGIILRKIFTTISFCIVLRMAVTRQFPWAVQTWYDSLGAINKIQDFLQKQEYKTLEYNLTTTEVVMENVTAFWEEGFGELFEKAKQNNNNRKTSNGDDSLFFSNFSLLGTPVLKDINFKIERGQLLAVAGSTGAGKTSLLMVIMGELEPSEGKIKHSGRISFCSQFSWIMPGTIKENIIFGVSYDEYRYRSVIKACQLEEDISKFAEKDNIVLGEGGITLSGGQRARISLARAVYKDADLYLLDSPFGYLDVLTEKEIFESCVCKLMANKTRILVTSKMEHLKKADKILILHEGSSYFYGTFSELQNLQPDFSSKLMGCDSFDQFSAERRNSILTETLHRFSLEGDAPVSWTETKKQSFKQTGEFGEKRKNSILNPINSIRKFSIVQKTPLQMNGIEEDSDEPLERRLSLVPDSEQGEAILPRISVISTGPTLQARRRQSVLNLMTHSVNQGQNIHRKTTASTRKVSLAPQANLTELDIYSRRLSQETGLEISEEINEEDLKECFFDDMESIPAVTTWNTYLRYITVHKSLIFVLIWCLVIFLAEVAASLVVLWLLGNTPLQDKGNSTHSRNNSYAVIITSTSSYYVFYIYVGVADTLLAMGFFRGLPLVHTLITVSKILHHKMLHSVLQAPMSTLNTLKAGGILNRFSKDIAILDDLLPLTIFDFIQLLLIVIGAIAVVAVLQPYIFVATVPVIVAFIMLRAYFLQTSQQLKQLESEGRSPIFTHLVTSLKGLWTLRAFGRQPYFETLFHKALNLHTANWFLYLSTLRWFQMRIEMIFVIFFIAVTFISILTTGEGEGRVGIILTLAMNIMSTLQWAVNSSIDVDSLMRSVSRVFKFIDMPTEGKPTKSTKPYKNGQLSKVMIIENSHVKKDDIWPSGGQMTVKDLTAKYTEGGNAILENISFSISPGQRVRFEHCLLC

Turning to “elexacaftor/ivacaftor/tezacaftor [Trikafta]”, the “Exon 22 truncated CFTR function, of that of wildtype” value is “about 15%”.

The values are drawn from US20260125686A1, “COMPOSITIONS AND METHODS FOR MODULATION OF CFTR” (Cystic Fibrosis Foundation, priority 2022, published 2026).
